The record followed here is patent publication US20120237941A1, “METHOD FOR SCREENING ACTIVE AGENTS THAT STIMULATE THE EXPRESSION OF ARNT2 TO IMPROVE THE SKIN'S BARRIER FUNCTION” (CHANEL PARFUMS BEAUTE, priority 2009, published 2012).

In this experiment the test system is ARNT2 mRNA. Nature of the experiment: Stimulation of the expression of ARNT2 mRNA in normal human keratinocytes (real-time RT-PCR). As to conditions: 0.001% active agent (w/w), 24 hours, fold vs untreated control (1.00), housekeeping gene RPLPO. It is filed as cell-based. The method, then:
Keratinocytes derived from neonatal foreskins (Invitrogen, CA, USA) were cultured in 6-well plates in keratinocyte culture medium with supplement (EpiLife, Invitrogen). After culturing for 24 hours at 37° C., the 70% confluent cells were washed with PBS buffer (Invitrogen, CA) and incubated with basic keratinocytes culture medium (EpiLife, Invitrogen) containing the active agent to be tested, for 24 hours, at increasing concentrations. The cytotoxicity of the active agent was evaluated in human cultured keratinocytes before testing the activity.
Keratinocytes were treated with various concentrations of active agent in triplicates for 24 hours. The mRNA was isolated using the Qiagen RNeasy kit (Qiagen, CA) and quantified using the QuantIt kit (Invitrogen, CA).
The PCR primers were obtained from Applied Biosystems (Applied Biosystems, CA). The housekeeping gene used was RPLPO.
To quantify the expression of messenger RNA of ARNT2 in a treated sample relative to an untreated sample, real-time polymerase chain amplification (RT-PCR) was performed. […]
The relative quantification of the expression of the target gene was performed using the Pfaffl mathematical model (Pfaffl, M W, Nucleic Acids Res. 29(9), p. E45, 2001). […]
The effect of this botanical extract on the expression of the ARNT2 mRNA was evaluated on cultured keratinocytes. […]

Consider `CC(=O)Oc1cc(C=Cc2ccc(OC(=O)CCCCC3CCSS3)cc2)cc(OC(C)=O)c1` (stereo not shown) [Active agent tested, resveratrol 3,5-diacetate-4′-lipoate], for which the “Stimulation of ARNT2 mRNA” value is on record as 1.81.
